Measurements as given in ChEMBL document CHEMBL3272151, “Quantitative structure-activity relationship of chymotrypsin-ligand interactions” (J Med Chem, 1977).

Tests used:
Settings in all cases: Homo sapiens
[1] = Binding affinity to alpha-chymotrypsin (unknown origin)
[2] = Binding affinity to alpha-chymotrypsin (unknown origin) assessed as hydrolysis
[3] = Binding affinity to chymotrypsin (unknown origin)
[4] = Binding affinity to chymotrypsin (unknown origin) assessed as deacetylation
[5] = Binding affinity to chymotrypsin (unknown origin) assessed as hydrolysis
[6] = Binding affinity to chymotrypsin (unknown origin) assessed as acetylation at pH 7

| SMILES | log(1/Km) [1] | logKcat [2] | log(1/Km) [3] | log K [4] | logKcat [5] | log K [6] |
| --- | --- | --- | --- | --- | --- | --- |
| COC(=O)CNC(=O)c1cccnc1 | 1.5 | -0.34 |  |  |  |  |
| COC(=O)CNC(=O)CC(C)C | 1.62 | -1.6 |  |  |  |  |
| COC(=O)[C@H](CC(C)C)NC(C)=O |  |  | 2.42 | 1.2 | 0.7 |  |
| CCOC(=O)CNC(C)=O |  | -1.42 | 1.2 |  |  | -1.03 |
| COC(=O)CNC(C)=O | 1.51 | -1.89 |  |  |  | -0.31 |
| Cc1ccc(C(=O)Oc2ccc([N+](=O)[O-])cc2[N+](=O)[O-])cc1 |  |  |  |  |  | 5.22 |
| O=C(Oc1ccc([N+](=O)[O-])cc1[N+](=O)[O-])c1ccc(Cl)cc1 |  |  |  |  |  | 5.55 |
| CCOC(=O)NCC(=O)OC | 1.19 | -0.88 |  |  |  |  |
| CC(C)c1ccc(C(=O)Oc2ccc([N+](=O)[O-])cc2[N+](=O)[O-])cc1 |  |  |  |  |  | 5.99 |
| CC(=O)N[C@H](C(=O)OC(C)C)C(C)C |  |  | 0.75 | -0.68 | -1.08 | -0.75 |
| CCSCC(=O)NCC(=O)OC | 1.98 | -2.27 |  |  |  |  |
| CC(C)(C)c1ccc(C(=O)Oc2ccc([N+](=O)[O-])cc2)cc1 |  |  |  |  |  | 4.07 |
| COC(=O)CNC(=O)CCl | 1.16 |  |  |  | -1.26 |  |
| CCOC(=O)[C@@H](NC(C)=O)C(C)C |  |  | 0.96 | -0.68 | -0.88 | -0.26 |
| CCC[C@H](NC(C)=O)C(=O)OC |  |  | 1.99 | 0.77 | 0.43 | 1.55 |
| COC(=O)[C@@H](NC(C)=O)C(C)C |  |  | 0.95 | -0.68 | -0.82 | -0.01 |
| O=C(Oc1ccc([N+](=O)[O-])cc1[N+](=O)[O-])c1ccc(F)cc1 |  |  |  |  |  | 4.83 |
| O=C(Oc1ccc([N+](=O)[O-])cc1[N+](=O)[O-])c1cccc(F)c1 |  |  |  |  |  | 5.25 |
| O=C(Oc1ccc([N+](=O)[O-])cc1[N+](=O)[O-])c1ccc(C(F)(F)F)cc1 |  |  |  |  |  | 6.4 |

| SMILES | log(1/Km) [1] | logKcat [2] | log(1/Km) [3] | log K [4] | logKcat [5] | log K [6] |
| --- | --- | --- | --- | --- | --- | --- |
| COC(=O)CNS(C)(=O)=O | 1.07 | -1.92 |  |  |  |  |
| COC(=O)[C@@H](NC(=O)CCl)C(C)C |  |  | 1.37 | -0.68 | -0.9 | -0.49 |
| Cc1cccc(C(=O)Oc2ccc([N+](=O)[O-])cc2[N+](=O)[O-])c1 |  |  |  |  |  | 4.75 |
| N#Cc1ccc(C(=O)Oc2ccc([N+](=O)[O-])cc2[N+](=O)[O-])cc1 |  |  |  |  |  | 5.94 |
| COc1ccc(C(=O)Oc2ccc([N+](=O)[O-])cc2[N+](=O)[O-])cc1 |  |  |  |  |  | 4.96 |
| O=C(Oc1ccc([N+](=O)[O-])cc1[N+](=O)[O-])c1cccc(Cl)c1 |  |  |  |  |  | 5.47 |
| CC[C@H](NC(C)=O)C(=O)OC |  |  | 1.28 | 0.22 | 0.02 | 0.94 |
| COC(=O)CNC(=O)C(F)(F)F | 1.27 | -1.07 |  |  |  |  |
| COC(=O)CNC(=O)c1ccco1 | 1.71 | -0.01 |  |  |  |  |
| CC(=O)NCC(=O)Oc1ccc([N+](=O)[O-])cc1 |  |  | 3.4 | -0.12 | 0.27 |  |
| COC(=O)CNC(=O)C(C)C | 1.34 | -1.68 |  |  |  |  |
| CCCC[C@H](NC(C)=O)C(=O)OC |  |  | 2.17 | 1.28 | 0.92 | 2.01 |
| O=C(Oc1ccc([N+](=O)[O-])cc1[N+](=O)[O-])c1cccc(C(F)(F)F)c1 |  |  |  |  |  | 5.47 |
| COC(=O)CNC(=O)C(Cl)Cl | 1.66 | -1.64 |  |  |  |  |
| CCC(=O)NCC(=O)OC | 1.42 | -1.74 |  |  |  |  |
| CCCCC[C@H](NC(C)=O)C(=O)OC |  |  | 2.79 |  | 1.13 |  |
| CCC[C@H](NC(C)=O)C(=O)OCCCl |  |  | 3.1 |  | 0.57 |  |
| CCOC(=O)C(NC(C)=O)C(=O)OCC |  |  | 1.51 |  | -0.15 |  |

Next, values leading:

| log(1/Km) [1] | logKcat [2] | log(1/Km) [3] | log K [4] | logKcat [5] | log K [6] | SMILES |
| --- | --- | --- | --- | --- | --- | --- |
|  |  |  |  |  | 3.29 | Cc1cccc(C(=O)Oc2ccc([N+](=O)[O-])cc2)c1 |
| 2.08 | -1.39 |  |  |  |  | COC(=O)CNC(=O)c1ccc(N)cc1 |
|  |  | 4.66 | 2.12 | 1.93 | 2.4 | CCOC(=O)[C@H](Cc1ccc(O)cc1)NC(=O)c1ccccc1 |
|  |  | 2.22 | -0.22 | -1.16 | -1.16 | CCOC(=O)[C@H](C)NC(=O)c1ccccc1 |
|  |  | 3.07 | 0.77 | 0.39 | 0.62 | CCC[C@H](NC(=O)c1ccccc1)C(=O)OC |
|  |  | 3.15 | 2.3 | 2.28 | 3.7 | CCOC(=O)[C@H](Cc1ccc(O)cc1)NC(C)=O |
| 1.75 | -0.8 |  |  |  |  | COC(=O)CNC(=O)c1ccncc1 |
|  |  | 4.74 | 2.08 | 1.96 | 2.56 | COC(=O)[C@H](Cc1ccc(O)cc1)NC(=O)c1ccccc1 |
| 2.1 | -2.22 |  |  |  |  | COC(=O)CNC(=O)Cc1ccccc1 |
| 3.49 | 2.07 |  |  |  |  | COC(=O)[C@H](Cc1ccc(O)cc1)NC(C)=O |
|  |  | 4.46 | 1.96 | 1.49 | 1.66 | COC(=O)[C@H](Cc1ccccc1)NC(=O)c1ccccc1 |
| 2 | 0.39 |  |  |  |  | COC(=O)CNC(=O)c1ccccn1 |
|  |  | 2.34 | -0.66 | -1.19 | -1.04 | COC(=O)[C@@H](NC(=O)c1ccccc1)C(C)C |
|  |  |  |  |  | 5.53 | CCc1ccc(C(=O)Oc2ccc([N+](=O)[O-])cc2[N+](=O)[O-])cc1 |
|  |  | 3.31 |  | 1.29 |  | CC(=O)N[C@@H](Cc1ccccc1)C(=O)O[C@H](C)C1CCCCC1 |
|  |  | 2.96 | 1.97 | 1.84 | 2.42 | CCOC(=O)[C@H](Cc1ccccc1)NC(C)=O |
|  |  |  |  |  | 4.44 | CC(C)c1ccc(C(=O)Oc2ccc([N+](=O)[O-])cc2)cc1 |
| 2.12 |  |  |  | -0.9 | -0.38 | COC(=O)CNC(=O)c1ccccc1 |
|  |  | 2.9 | 2.04 | 1.72 | 2.9 | COC(=O)[C@H](Cc1ccccc1)NC(C)=O |
|  |  | 3.04 |  | 1.55 |  | CC[C@H](C)OC(=O)[C@H](Cc1ccccc1)NC(C)=O |
|  |  | 1.54 |  | -0.38 |  | COC(=O)[C@H](C)NC(=O)c1ccncc1 |
|  |  | 5.06 |  | 1.49 |  | CS(=O)(=O)N[C@@H](Cc1ccccc1)C(=O)Oc1cccc([N+](=O)[O-])c1 |
|  |  | 3.28 |  | 1.37 |  | CC(=O)N[C@@H](Cc1ccccc1)C(=O)O[C@@H](C)C1CCCCC1 |
|  |  | 4.04 |  | -0.25 |  | O=C(CNC(=O)c1ccccc1)OCc1ccncc1 |
|  |  | 3.66 |  | -0.6 |  | CC(=O)NCC(=O)O[C@H](C)c1ccccc1 |
|  |  | 4.82 |  | 1.54 |  | COc1ccc(OC(=O)[C@H](Cc2ccccc2)NS(C)(=O)=O)cc1 |
|  |  |  |  |  | 4.86 | O=C(Oc1ccc([N+](=O)[O-])cc1[N+](=O)[O-])c1ccccc1 |
|  |  | 2.85 | 0.18 | -0.49 | -0.39 | CC[C@H](NC(=O)c1ccccc1)C(=O)OC |
| 2.86 |  |  |  | -1.25 |  | COC(=O)CNC(=O)c1c[nH]c2ccccc12 |
